# According to patent publication US20130302422A1, “PHARMACEUTICAL COMPOSITION FOR TREATMENT AND PREVENTION OF KIDNEY DISEASES” (KT & G CORPORATION, priority 2007, published 2013):
# Legend:
# [1] = test system: acute renal failure-induced animals; assay: Acute renal failure induced by ischaemia/reperfusion injury in rats (Experimental Example 1); type: in vivo, Sprague-Dawley rats
# Excerpt: Creatine is non-enzymatically converted into creatinine that is a waste product of muscle energy metabolism. Creatinine is a waste by-product and is therefore filtered by the kidney, but not reabsorbed. Since the muscle mass is generally maintained at a constant level and is less susceptible to other organs except for the kidney, a serum creatinine level is a good marker of the glomerular filtration rate. A higher creatinine concentration reflects more significant impairment of renal function. For example, a two-fold increase of the creatinine level represents a 50% decrease of the glomerular filtration rate.
# Accumulation of toxic ammonia in the body is prevented in a manner that ammonia is produced by deamination of amino acids during a protein metabolic process and is then converted into urea in the liver. When excretory function of the kidney is compromised, the blood urea nitrogen level is elevated. Therefore, measurement of BUN is an important indicator to examine whether the kidney is normally functional or not. When the BUN level is elevated over a normal value, the subject is suspected to have acute nephritis, chronic nephritis, prostate hyperplasia or the like. When the BUN level is dropped below a normal value, the subject is suspected to have diabetes insipidus, muscular dystrophy or the like.
# Among compounds of Formula 1, effects of 7,8-dihydro-2,2-dimethyl-2H-naphtho(2,3-b)dihydropyran-7,8-dione (hereinafter, referred to as “compound of Example 1”) on acute renal failure were examined. For this purpose, 6-week-old male Sprague-Dawley rats, weighing 200 to 220 g (Japan SLC, Inc., Japan) were divided into two groups as given in Table 1 below: a vehicle-treated control group and a group received the compound of Example 1 (200 mg/kg). Animals were given test samples by the oral route. […]
# Following the IR induction, 0.2 mL of serum was sampled from each animal on +1 day, +3 day and +5 day, respectively. Creatinine and BUN (blood urea nitrogen) levels were measured with an automatic biochemical analyzer (HITACHI, 7020).
# [2] = test system: diabetic nephropathy-induced animals; assay: Diabetic nephropathy model in ZDF rats (Experimental Example 2); type: in vivo, Zucker diabetic fatty (ZDF) rats; details: 250 mg/kg oral
# Excerpt: When the blood glucose level is elevated, glucose in the blood partially binds to hemoglobin in red blood cells, producing glycosylated hemoglobin (termed HbAlc). When glycosylated hemoglobin is formed, the corresponding red blood cells will retain HbAlc until the red blood cells complete their lives to be destroyed. […] The HbAlc reflect a blood glucose value over a relatively long period of time, so the measurement of the HbAlc level may be a useful indicator of how well diabetes has been therapeutically controlled over the past several months.
# An increase in the rate of excretion of albumin in the urine is the most preceding clinical finding in diabetic nephropathy. Therefore, an increased level of urine albumin is an indicator of renal or hepatic diseases.
# 8-week-old male Zucker diabetic fatty (ZDF) rats (Charles River Laboratory) were divided into four groups as given in Table 2 below: Vehicle, MB660 (250 mg/kg), Pair-fed, and Rosi (6 mg/kg). Animals were orally given test samples.
# Diabetic nephropathy model animals were fed with a low-fat feed (11.9 kcal % fat, 5053, Labdiet). Animals with a blood glucose level of 300 mg/dl and a body weight (BW) of more than 300 g were selected and treated with test samples for 4 and 8 weeks, respectively (total 12 and 16 weeks old). In-vivo changes in glycosylated hemoglobin (HbAlc), urine albumin and urine protein (1,000× urine albumin/urine creatinine) associated with kidney diseases were observed. Albumin was measured using an immunoturbidimetric assay, and creatinine was measured using a Jaffe rate method.
compound,measurement,setting,value
"CC1(C)CCC2=C(O1)c1ccccc1C(=O)C2=O [Example 1, 7,8-dihydro-2,2-dimethyl-2H-naphtho(2,3-b)dihydropyran-7,8-dione]",serum creatinine level,"[1]; 200 mg/kg oral for two weeks before IR induction, serum on +1, +3, +5 day, vs control group, most prominent after 3 days of reperfusion (FIG. 1)",significantly decreased
same,serum BUN (blood urea nitrogen) level,"[1]; 200 mg/kg oral for two weeks before IR induction, serum on +1, +3, +5 day, vs control group, most remarkable after 3 days of reperfusion (FIG. 2)",significant reduction
same,glomerular filtration rate,"[1]; 200 mg/kg oral, inferred from serum creatinine and BUN results",elevation
same,glycosylated hemoglobin (HbAlc),[2]; treated 4 and 8 weeks (FIG. 3),significantly low
same,urine albumin level,"[2]; treated 4 and 8 weeks, compared with Rosiglitazone 6 mg/kg group (FIG. 5)",lower
same,daily urine protein level (1000× urine albumin/urine creatinine),"[2]; treated 4 and 8 weeks, compared with Rosiglitazone 6 mg/kg group (FIG. 6)",lower
same,left kidney weight,"[2]; treated 4 and 8 weeks, vs diabetic nephropathy-induced control group (FIG. 4)",significant decrease
